Biological target: T1, CCR-3 (Homo sapiens, UniProt P51677)
T1 sequence (P51677 1-355): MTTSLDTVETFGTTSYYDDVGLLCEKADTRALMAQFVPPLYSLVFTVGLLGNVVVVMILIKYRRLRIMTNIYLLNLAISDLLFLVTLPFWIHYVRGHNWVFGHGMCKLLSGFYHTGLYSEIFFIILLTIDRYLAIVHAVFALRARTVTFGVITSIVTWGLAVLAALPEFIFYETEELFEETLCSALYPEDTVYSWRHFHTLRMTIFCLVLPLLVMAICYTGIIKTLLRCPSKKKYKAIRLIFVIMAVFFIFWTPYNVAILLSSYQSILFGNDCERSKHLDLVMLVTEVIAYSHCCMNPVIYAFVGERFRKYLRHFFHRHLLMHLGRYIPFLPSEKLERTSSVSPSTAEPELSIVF
Experiment: Eotaxin-induced chemotaxis of CCR-3 transfectant cells (CCR3/U937)
Format: cell-based
Parameters: expressed in transfected cells; host or cells: U937
Settings: 10 µM test compound, eotaxin 1 x 10^-9 M, CCR3/U937 cells (Table 3c); for inhibition at 10 µM: U-937

| Compound | inhibition at 10 µM [%] | Chemotaxis Assay 10 µM (inhibition %) [%] |
| --- | --- | --- |
| CC[N+](CCCNC(=O)Nc1ccccc1)(CCc1ccc(Cl)cc1)Cc1ccc(C(=O)O)cc1 (stereo not drawn) [Compound 322, [3-(Phenylureido)propyl][2-(4-chlorophenyl)ethyl][4-(carboxy)benzyl]ethylammonium iodide] | 93 |  |
| CC[N+](CC)(CCCCCNC(=O)Nc1ccccc1)CCc1ccc(Cl)cc1.[I-] [Compound 323, [5-(Phenylureido)pentyl][2-(4-chlorophenyl)ethyl]diethylammanium iodide] |  | 100 |
| CC[N+](CCCNC(=O)Nc1ccccc1)(CCc1ccc(Cl)cc1)Cc1ccccc1Cl (stereo not drawn) [Compound 343, [3-(Phenylureido)propyl][2-(4-chlorophenyl)ethyl](2-chlorobenzyl)ethylammonium iodide] | 100 |  |
| CC[N+](CCCNC(=O)Nc1ccccc1)(CCc1ccc(Cl)cc1)Cc1cc(F)ccc1F (stereo not drawn) [Compound 351, [3-(Phenylureido)propyl][2-(4-chlorophenyl)ethyl](2,5-difluorobenzyl)ethylammonium iodide] | 100 |  |
| CC[N+](CCCNC(=O)Nc1ccccc1)(CCc1ccc(Cl)cc1)Cc1cccc(F)c1 (stereo not drawn) [Compound 352, [3-(Phenylureido)propyl][2-(4-chlorophenyl)ethyl](3-fluorobenzyl)ethylammonium iodide] | 100 |  |
| CC[N+](CC)(CCCNC(=O)Nc1ccccc1)C1CCc2ccccc21.[I-] (stereo not drawn) [compound 311] |  | 93 |
| CC[N+](CCCNC(=O)Nc1ccc(Br)cc1)(CCCC(=O)OC)C(C)c1ccccc1.[I-] (stereo not drawn) [compound 312] |  | 97 |
| CC[N+](CCCNC(=O)Nc1ccc(Br)cc1)(CCCC(=O)OC)C(C)c1ccccc1.[I-] (stereo not drawn) [compound 313] |  | 86 |
| CC[N+](CCCNC(=O)Nc1ccc(Br)cc1)(CCCC(=O)OC)C1CCc2ccccc21.[I-] (stereo not drawn) [compound 314] |  | 100 |
| CC[N+](CCCNC(=O)Nc1ccccc1)(CCc1ccc(Cl)cc1)CCc1ccc(Cl)cc1.[I-] [compound 317] |  | 100 |
| CC[N+](CCCNC(=O)Nc1ccccc1)(CCc1ccc(Cl)cc1)CC(C)C.[I-] (stereo not drawn) [compound 318] |  | 100 |
| CC[N+](CCCNC(=O)Nc1ccccc1)(CCc1ccc(Cl)cc1)CC1CCCCC1.[I-] (stereo not drawn) [compound 319] |  | 100 |
| CCOC(=O)CCCCC[N+](CC)(CCCNC(=O)Nc1ccccc1)CCc1ccc(Cl)cc1.[I-] (stereo not drawn) [compound 321] |  | 100 |
| CC[N+](CCCNC(=O)Nc1ccc(OC)cc1)(CCc1ccc(Cl)cc1)Cc1ccccc1.[I-] (stereo not drawn) [compound 324] |  | 100 |
| CC[N+](CCCNC(=O)Nc1ccc(Cl)c(Cl)c1)(CCc1ccc(Cl)cc1)Cc1ccccc1.[I-] (stereo not drawn) [compound 325] |  | 100 |
| CC[N+](CCCNC(=O)Nc1ccc(C#N)cc1)(CCc1ccc(Cl)cc1)Cc1ccccc1.[I-] (stereo not drawn) [compound 326] |  | 100 |
| CC[N+](CCCNC(=O)Nc1ccccc1)(CCc1ccc(Cl)cc1Cl)Cc1ccccc1.[I-] (stereo not drawn) [compound 327] |  | 100 |
| CC[N+](CCCNC(=O)Nc1ccccc1)(CCc1cccc(Cl)c1)Cc1ccccc1.[I-] (stereo not drawn) [compound 328] |  | 100 |
| CC[N+](CCCNC(=O)Nc1ccccc1)(CCc1ccc(Cl)cc1)Cc1cccc(Cl)c1.[I-] (stereo not drawn) [compound 329] |  | 100 |
| CC[N+](CCCNC(=O)Nc1ccccc1)(CCc1ccc(Cl)cc1)Cc1ccc(-c2ccccc2)cc1.[I-] (stereo not drawn) [compound 330] |  | 100 |

| Compound | inhibition at 10 µM [%] | Chemotaxis Assay 10 µM (inhibition %) [%] |
| --- | --- | --- |
| CC[N+](CCCNC(=O)Nc1ccccc1)(CCc1ccc(Cl)cc1)Cc1cccc(OC)c1.[I-] (stereo not drawn) [compound 331] |  | 100 |
| CC[N+](CCCNC(=O)Nc1ccccc1)(CCc1ccc(Cl)cc1)Cc1cccc(C(=O)OC)c1.[I-] (stereo not drawn) [compound 332] |  | 100 |
| CC[N+](CCCNC(=O)Nc1ccccc1)(CCc1ccc(Cl)cc1)Cc1cccc(Oc2ccccc2)c1.[I-] (stereo not drawn) [compound 333] |  | 100 |
| CC[N+](CCCNC(=O)Nc1ccccc1)(CCc1ccc(Cl)cc1)Cc1ccc(OCc2ccccc2)cc1.[I-] (stereo not drawn) [compound 334] |  | 100 |
| CC[N+](CCCNC(=O)Nc1ccccc1)(CCc1ccc(Cl)cc1)Cc1ccc([N+](=O)[O-])cc1.[I-] (stereo not drawn) [compound 337] |  | 99 |
| CC[N+](CCCNC(=O)Nc1ccccc1)(CCc1ccc(Cl)cc1)Cc1cccc([N+](=O)[O-])c1.[I-] (stereo not drawn) [compound 338] |  | 100 |
| CC[N+](CCCNC(=O)Nc1ccccc1)(CCc1ccc(Cl)cc1)Cc1ccc(F)cc1F.[I-] (stereo not drawn) [compound 339] |  | 100 |
| CC[N+](CCCNC(=O)Nc1ccccc1)(CCc1ccc(Cl)cc1)Cc1ccc(Br)cc1.[I-] (stereo not drawn) [compound 340] |  | 100 |
| CC[N+](CCCNC(=O)Nc1ccccc1)(CCc1ccc(Cl)cc1)Cc1ccccc1-c1ccccc1.[I-] (stereo not drawn) [compound 341] |  | 100 |
| CC[N+](CCCNC(=O)Nc1ccccc1)(CCc1ccc(Cl)cc1)Cc1ccc(C(C)(C)C)cc1.[I-] (stereo not drawn) [compound 342] |  | 97 |
| CC[N+](CCCNC(=O)Nc1ccccc1)(CCc1ccc(Cl)cc1)Cc1ccc(OC)cc1.[I-] (stereo not drawn) [compound 344] |  | 100 |
| CC[N+](CCCNC(=O)Nc1ccccc1)(CCc1ccc(Cl)cc1)Cc1ccc(C#N)cc1.[I-] (stereo not drawn) [compound 345] |  | 100 |
| CC[N+](CCCNC(=O)Nc1ccccc1)(CCc1ccc(Cl)cc1)Cc1ccccc1C.[I-] (stereo not drawn) [compound 346] |  | 100 |
| CC[N+](CCCNC(=O)Nc1ccccc1)(CCc1ccc(Cl)cc1)Cc1cccc(C)c1.[I-] (stereo not drawn) [compound 347] |  | 100 |
| CC[N+](CCCNC(=O)Nc1ccccc1)(CCc1ccc(Cl)cc1)Cc1cc2c(cc1Cl)OCO2.[I-] (stereo not drawn) [compound 348] |  | 100 |
| CC[N+](CCCNC(=O)Nc1ccccc1)(CCc1ccc(Cl)cc1)Cc1ccc(Cl)c(Cl)c1.[I-] (stereo not drawn) [compound 349] |  | 100 |
| CC[N+](CCCNC(=O)Nc1ccccc1)(CCc1ccc(Cl)cc1)Cc1ccc(OCc2ccccc2)c(OCc2ccccc2)c1.[I-] (stereo not drawn) [compound 350] |  | 59 |
| CC[N+](CCCNC(=O)Nc1ccccc1)(CCc1ccc(Cl)cc1)Cc1ccc(C)c(C)c1.[I-] (stereo not drawn) [compound 353] |  | 100 |
| CC[N+](CCCNC(=O)Nc1ccccc1)(CCc1ccc(Cl)cc1)Cc1cccc(Oc2ccccc2F)c1.[I-] (stereo not drawn) [compound 354] |  | 100 |
